In one series the test system is SARS-CoV-2. Briefly: microbe, parasite or virus in culture. Type of series: cell-based.
The nature of the next series: MT4 cytotoxicity (CC50). The note with it: human, MT4 cells.
The test system of series [1] is Recombinant Respiratory Syncytial virus strain A2 containing the firefly luciferase reporter (RSV-Fluc). Briefly: microbe, parasite or virus in culture. The series is classed as cell-based. The note with it: human respiratory syncytial virus, NHBE.
Setting [2] is: Severe acute respiratory syndrome coronavirus 2, read-out: SARS EC50.
[3] abbreviates: 72 h, read-out: RSV-Fluc EC50 (NHBE), NHBE cells, three days, Table 2.
[4] abbreviates: Severe acute respiratory syndrome coronavirus 2, 48 h, read-out: SARS-CoV-2 EC50.
[5] abbreviates: 72 h, read-out: RSV-Fluc EC50 (NHBE), NHBE cells, three days, Table 1.

pEC50: −log10 of the molar value. Like-named read-outs stand apart in the source and are kept apart here.

For `CCCCCCCCCCCCCCCCCCOC[C@H](COP(=O)(O)OC[C@H]1O[C@@](C#N)(c2ccc3c(N)ncnn23)[C@H](O)[C@@H]1O)OC(C)c1ccccc1` (single isomer, unassigned) [Example 27], the pEC50 in the series on SARS-CoV-2 (setting [2]) is 5.70; in series [1] (setting [3]), 6.96; in series [1] (read-out: RSV EC50, Table 2a) it was 6.95. In the series “MT4 cytotoxicity (CC50)” (MT4 CC50, Table 2a), this compound returned a CC50 of 0.614 µM.
For `CCCCCCCCCCCCCCCCCOC[C@H](COP(=O)(O)OC[C@H]1O[C@@](C#N)(c2ccc3c(N)ncnn23)[C@H](O)[C@@H]1O)OCc1ccccc1` [Example 6, ((2R,3S,4R,5R)-5-(4-aminopyrrolo[2,1-f][1,2,4]triazin-7-yl)-5-cyano-3,4-dihydroxytetrahydrofuran-2-yl)methyl ((R)-2-(benzyloxy)-3-(heptadecyloxy)propyl) hydrogen phosphate], the negative logarithm of the EC50 (pEC50) in the series on SARS-CoV-2 (setting [4]) is 6.02; in series [1] (setting [5]), 7.10. Further, in the series “MT4 cytotoxicity (CC50)” (MT4 CC50, Table 1a), it took 4.15 µM to reach half-maximal cytotoxicity (CC50).
For `CCCCCCCCCCCCCCCCCCOC[C@H](COP(=O)(O)OC[C@H]1O[C@@](C#N)(c2ccc3c(N)ncnn23)[C@H](O)[C@@H]1O)OCc1ccc(F)c(Cl)c1` [Example 17], in that order: 6.16, 7.70 and 2.1 µM.
Regarding `CCCCCCCCCCCCCCCCCCOC[C@H](COP(=O)(O)OC[C@H]1O[C@@](C#N)(c2ccc3c(N)ncnn23)[C@H](O)[C@@H]1O)OCc1cc(F)cc(C(F)(F)F)c1` [Example 19, ((2R,3S,4R,5R)-5-(4-aminopyrrolo[2,1-f][1,2,4]triazin-7-yl)-5-cyano-3,4-dihydroxytetrahydrofuran-2-yl)methyl ((R)-2-((3-fluoro-5-(trifluoromethyl)benzyl)oxy)-3-(octadecyloxy)propyl) hydrogen phosphate], the pEC50 is 5.55 in the series with SARS-CoV-2 (setting [2]); 6.74 in series [1] (setting [3]); 6.74 in series [1] (read-out: RSV EC50, Table 2a). For the same compound, in “MT4 cytotoxicity (CC50)” (MT4 CC50, Table 2a), the CC50 was 0.541 µM.
Turning to `CCCCCCCCCCCCCCCCCCOC[C@H](COP(=O)(O)OC[C@H]1O[C@@](C#N)(c2ccc3c(N)ncnn23)[C@H](O)[C@@H]1O)OCc1ccsc1` [Example 20, ((2R,3S,4R,5R)-5-(4-aminopyrrolo[2,1-f][1,2,4]triazin-7-yl)-5-cyano-3,4-dihydroxytetrahydrofuran-2-yl)methyl ((R)-3-(octadecyloxy)-2-(thiophen-3-ylmethoxy)propyl) hydrogen phosphate], the pEC50 in the series with SARS-CoV-2 (setting [2]) is 6.58; in series [1] (setting [3]), 7.12; in series [1] (read-out: RSV EC50, Table 2a), 7.12. This compound also registered a CC50 in “MT4 cytotoxicity (CC50)” (MT4 CC50, Table 2a) of 13.2 µM.
As to `CCCCCCCCCCCCCCCCCCOC[C@](C)(COP(=O)(O)OC[C@H]1O[C@@](C#N)(c2ccc3c(N)ncnn23)[C@H](O)[C@@H]1O)OCc1ccccc1` [Example 21, ((2R,3S,4R,5R)-5-(4-aminopyrrolo[2,1-f][1,2,4]triazin-7-yl)-5-cyano-3,4-dihydroxytetrahydrofuran-2-yl)methyl ((R)-2-(benzyloxy)-2-methyl-3-(octadecyloxy)propyl) hydrogen phosphate], the pEC50 in the series with SARS-CoV-2 (setting [2]) was 5.76; in series [1] (setting [3]), 7.12; in series [1] (read-out: RSV EC50, Table 2a), 7.11. The CC50 in “MT4 cytotoxicity (CC50)” (MT4 CC50, Table 2a) was determined as 50 µM.
Regarding `CCCCCCCCCCCCCCCCCCOC[C@@H](CCc1ccccc1)COP(=O)(O)OC[C@H]1O[C@@](C#N)(c2ccc3c(N)ncnn23)[C@H](O)[C@@H]1O` [Example 22, ((2R,3S,4R,5R)-5-(4-aminopyrrolo[2,1-f][1,2,4]triazin-7-yl)-5-cyano-3,4-dihydroxytetrahydrofuran-2-yl)methyl ((R)-2-((octadecyloxy)methyl)-4-phenylbutyl) hydrogen phosphate], the pEC50 with SARS-CoV-2 (setting [2]) was 5.28; in series [1] (setting [3]), 6.80; in series [1] (read-out: RSV EC50, Table 2a) it was 6.80. Besides, it took 26.4 µM to reach half-maximal cytotoxicity in the series “MT4 cytotoxicity (CC50)” (MT4 CC50, Table 2a) (CC50).
As for `CCCCCCCCCCCCCCCCCCOC[C@H](COP(=O)(O)OC[C@H]1O[C@@](C#N)(c2ccc3c(N)ncnn23)[C@H](O)[C@@H]1O)OCc1ccc(C#N)c(Cl)c1` [Example 23, ((2R,3S,4R,5R)-5-(4-aminopyrrolo[2,1-f][1,2,4]triazin-7-yl)-5-cyano-3,4-dihydroxytetrahydrofuran-2-yl)methyl ((R)-2-((3-chloro-4-cyanobenzyl)oxy)-3-(octadecyloxy)propyl) hydrogen phosphate], the pEC50 with SARS-CoV-2 (setting [2]) is 6.34; in series [1] (setting [3]), 7.52; in series [1] (read-out: RSV EC50, Table 2a) it was 7.52. The same compound returned a CC50 in the series “MT4 cytotoxicity (CC50)” (MT4 CC50, Table 2a) of 0.723 µM.
As for `CC(C)CCCCCCCCCCCCCCOC[C@H](COP(=O)(O)OC[C@H]1O[C@@](C#N)(c2ccc3c(N)ncnn23)[C@H](O)[C@@H]1O)OCc1ccccc1` [Example 24, ((2R,3S,4R,5R)-5-(4-aminopyrrolo[2,1-f][1,2,4]triazin-7-yl)-5-cyano-3,4-dihydroxytetrahydrofuran-2-yl)methyl ((R)-2-(benzyloxy)-3-((15-methylhexadecyl)oxy)propyl) hydrogen phosphate], the pEC50 is 5.48 with SARS-CoV-2 (setting [2]); 7.38 in series [1] (setting [3]); 7.38 in series [1] (read-out: RSV EC50, Table 2a). In the series “MT4 cytotoxicity (CC50)” (MT4 CC50, Table 2a), this compound returned a CC50 of 2.2 µM.
With `CCCCCCCCCCCCCCCCOCCCCOP(=O)(O)OC[C@H]1O[C@@](C#N)(c2ccc3c(N)ncnn23)[C@H](O)[C@@H]1O` [Example 25, ((2R,3S,4R,5R)-5-(4-aminopyrrolo[2,1-f][1,2,4]triazin-7-yl)-5-cyano-3,4-dihydroxytetrahydrofuran-2-yl)methyl (4-(hexadecyloxy)butyl) hydrogen phosphate], the pEC50 in the series with SARS-CoV-2 (setting [2]) is 5.13; in series [1] (setting [3]), 7.15; in series [1] (read-out: RSV EC50, Table 2a), 6.58. Also, in “MT4 cytotoxicity (CC50)” (MT4 CC50, Table 2a), the midpoint of cytotoxicity, the CC50, lay at 48.9 µM.
The like results for `CCCCCCCCCCCCCCCCCCOCC(COc1ccccc1)COP(=O)(O)OC[C@H]1O[C@@](C#N)(c2ccc3c(N)ncnn23)[C@H](O)[C@@H]1O` (stereo partly drawn) [Example 29, ((2R,3S,4R,5R)-5-(4-aminopyrrolo[2,1-f][1,2,4]triazin-7-yl)-5-cyano-3,4-dihydroxytetrahydrofuran-2-yl)methyl (3-(octadecyloxy)-2-(phenoxymethyl)propyl) hydrogen phosphate] were, in that order, 5.48, 6.85, 6.85 and 6.16 µM.
For `CCCCCCCCCCCCCCCCCCOC[C@H](COP(=O)(O)OC[C@H]1O[C@@](C#N)(c2ccc3c(N)ncnn23)[C@H](O)[C@@H]1O)Oc1cccc(C#N)c1` [Example 30, ((2R,3S,4R,5R)-5-(4-aminopyrrolo[2,1-f][1,2,4]triazin-7-yl)-5-cyano-3,4-dihydroxytetrahydrofuran-2-yl)methyl ((R)-2-(3-cyanophenoxy)-3-(octadecyloxy)propyl) hydrogen phosphate], in that order: 7.01, 7.77, 7.77 and 0.188 µM.
With `CCCCCCCCCCCCCCCCCCOC[C@H](COP(=O)(O)OC[C@H]1O[C@@](C#N)(c2ccc3c(N)ncnn23)[C@H](O)[C@@H]1O)OCc1cc(F)ccc1C#N` [Example 51, ((2R,3S,4R,5R)-5-(4-aminopyrrolo[2,1-f][1,2,4]triazin-7-yl)-5-cyano-3,4-dihydroxytetrahydrofuran-2-yl)methyl ((R)-2-((2-cyano-5-fluorobenzyl)oxy)-3-(octadecyloxy)propyl) hydrogen phosphate], the pEC50 in the series on SARS-CoV-2 (setting [2]) was 5.78. In the series “MT4 cytotoxicity (CC50)” (MT4 CC50, Table 2a), the midpoint of cytotoxicity, the CC50, lay at 2.14 µM.
In the case of `CCCCCCCCCCCCCCCCCCOC[C@H](COP(=O)(O)OC[C@H]1O[C@@](C#N)(c2ccc3c(N)ncnn23)[C@H](O)[C@@H]1O)Oc1ncccc1OC` [Example 91, ((2R,3S,4R,5R)-5-(4-aminopyrrolo[2,1-f][1,2,4]triazin-7-yl)-5-cyano-3,4-dihydroxytetrahydrofuran-2-yl)methyl ((R)-2-((3-methoxypyridin-2-yl)oxy)-3-(octadecyloxy)propyl) hydrogen phosphate], half-maximal cytotoxicity in “MT4 cytotoxicity (CC50)” (MT4 CC50, Table 4) (CC50) was put at 0.454 µM. The negative logarithm of the EC50 (pEC50) in series [1] (read-out: RSV EC50, Table 4) is 7.34.
The like results for `CCCCCCCCCCCCCCCCOC[C@H](COP(=O)(O)OC[C@H]1O[C@@](C#N)(c2ccc3c(N)ncnn23)[C@H](O)[C@@H]1O)OCc1cc(F)cc(C#N)c1` [Example 119, [(2R,3S,4R,5R)-5-(4-Aminopyrrolo[2,1-f][1,2,4]triazin-7-yl)-5-cyano-3,4-dihydroxy-tetrahydrofuran-2-yl]methyl [(2R)-2-[(3-cyano-5-fluoro-phenyl)methoxy]-3-hexadecoxy-propyl] hydrogen phosphate] were, in that order, 0.404 µM and 7.52.
For `CCCCCCCCCCCCCCCCCCCCOC[C@H](COP(=O)(O)OC[C@H]1O[C@@](C#N)(c2ccc3c(N)ncnn23)[C@H](O)[C@@H]1O)OCc1cc(F)cc(C#N)c1` [Example 125, ((2R,3S,4R,5R)-5-(4-aminopyrrolo[2,1-f][1,2,4]triazin-7-yl)-5-cyano-3,4-dihydroxytetrahydrofuran-2-yl)methyl ((R)-2-((3-cyano-5-fluorobenzyl)oxy)-3-(icosyloxy)propyl) hydrogen phosphate], in that order: 2.08 µM and 6.89.
For `CCCCCCCC/C=C\CCCCCCCCOC[C@H](COP(=O)(O)OC[C@H]1O[C@@](C#N)(c2ccc3c(N)ncnn23)[C@H](O)[C@@H]1O)OCc1cc(F)cc(C#N)c1` [Example 128, ((2R,3S,4R,5R)-5-(4-aminopyrrolo[2,1-f][1,2,4]triazin-7-yl)-5-cyano-3,4-dihydroxytetrahydrofuran-2-yl)methyl ((R)-2-((3-cyano-5-fluorobenzyl)oxy)-3-(((Z)-octadec-9-en-1-yl)oxy)propyl) hydrogen phosphate], in that order: 0.73 µM and 8.70.

Source of the values: US12030904B2 (priority 2020, dated 2024).
